This note sets out measurements from patent US20250136722A1, “CYTOTOXICITY TARGETING CHIMERAS” (GLAXOSMITHKLINE INTELLECTUAL PROPERTY DEVELOPMENT LIMITED, priority 2021, published 2025).

SMILES strings stand for the structures.

This assay addresses T1, CHOK1 cells engineered to overexpress human CCR2 (Homo sapiens, UniProt P41597).
T1 construct: expressed in transfected cells; host or cells: CHOK1 cells
Kind of assay: Antibody dependent cellular cytotoxicity (ADCC) reporter assay (Example 199). In kind it is cell-based. The following applies: with anti-cotinine antibody SEQ ID NO: 11/12; CHOK1-human CCR2 target cells, Jurkat FcγRIIIa NFAT-luciferase reporter cells; 12-18 hours; read-out: ADCC Reporter Assay pEC50 (converted). The method, then:
An antibody dependent cellular cytoxicity reporter assay was conducted using the following four assay components: (i) ARM compound of Formula (I) targeting CCR2 (concentrations ranging from 1 pM to 10 μM) (ii) anti-cotinine antibody having a heavy chain sequence of SEQ ID NO: 11 and a light chain sequence of SEQ ID NO: 12 (rabbit variable region with human IgG1 Fc domain containing a DE mutation (S239D/1332E)) (concentrations ranging from 0.01 μg/mL to 200 μg/mL); (iii) target cells: CHOK1 cells engineered to overexpress either human CCR2 (typically 1000-20,000 cells per well) and (iv) reporter cells: Jurkat cells engineered to express FcγRIIIa with the reporter gene luciferase under the control of the NFAT promoter (typically 3000-75,000 cells per well). Reagents were combined in a final volume of 20 μL in a 384-well tissue culture treated plate. All four assay components were incubated together for about 12-18 hours. Thereafter, BioGlo Detection reagent (Promega) was added to the wells to lyse the cells and provide a substrate for the luciferase reporter protein. Luminescence signal was measured on a microplate reader and signal:background was calculated by dividing the signal of a test well by the signal obtained when no heterobivalent compound of Formula (I) was added. EC50 calculations were done using Graphpad Prism Software, specifically a nonlinear regression curve fit (Y=Bottom+(Top−Bottom)/(1+10^((Log EC50−X)*HillSlope))).
ARMs compounds of Formula (I) of the invention were tested for ADCC activity in the above assay in or more experimental runs and the results are shown in Table 3 below. Potency of the compounds of Formula (I) of the invention is reported as a pEC50 value. The pEC50 value is the negative log of the EC50 value, wherein the EC50 value is the half maximal effective concentration measured in molar (M). For compounds tested in more than one experimental run, the pEC50 value is reported as an average.

In the case of `CC(C)N(C)[C@@H]1CC[C@H](N2CC[C@H](Nc3ncnc4ccc(C(F)(F)F)cc34)C2=O)[C@H](NC(=O)C2CCC(N3CCC(S(=O)(=O)NCCCCCCNC(=O)[C@H]4CC(=O)N(C)[C@@H]4c4cccnc4)CC3)CC2)C1` (single isomer, unassigned) [Example 148], the EC50 is 3.16 nM.

In the case of `CC(C)N(C)[C@@H]1CC[C@H](N2CC[C@H](Nc3ncnc4ccc(C(F)(F)F)cc34)C2=O)[C@H](NC(=O)CCCNC(=O)CCCC(=O)NCCCOCCCNC(=O)[C@@H]2CC(=O)N(C)[C@H]2c2cccnc2)C1` [Example 21], the EC50 was 0.469 nM.

Consider `CC(C)N(C)[C@@H]1CC[C@H](N2CC[C@H](Nc3ncnc4ccc(C(F)(F)F)cc34)C2=O)[C@H](NC(=O)C23CCC(NC(=O)CCOCCOCCOCCNC(=O)[C@H]4CC(=O)N(C)[C@@H]4c4cccnc4)(CC2)CC3)C1` [Example 25], for which the EC50 was 20 nM.

Consider `CC(C)N(C)[C@@H]1CC[C@H](N2CC[C@H](Nc3ncnc4ccc(C(F)(F)F)cc34)C2=O)[C@H](NC(=O)C[C@H]2CC[C@H](NC(=O)CCOCCOCCOCCNC(=O)[C@H]3CC(=O)N(C)[C@@H]3c3cccnc3)CC2)C1` [Example 33], for which the EC50 is 4.54 nM.

With `CN1C(=O)C[C@H](C(=O)NCCOCCOCCOCCOCCOCCOCCOCCOCCC(=O)N[C@@H]2C[C@H](NC(C)(C)C)CC[C@@H]2N2CC[C@H](Nc3ncnc4ccc(C(F)(F)F)cc34)C2=O)[C@H]1c1cccnc1` [Example 36, (2S,3S)-N-(27-(((1R,2S,5R)-5-(tert-Butylamino)-2-((S)-2-oxo-3-((6-(trifluoromethyl)quinazolin-4-yl)amino)pyrrolidin-1-yl)cyclohexyl)amino)-27-oxo-3,6,9,12,15,18,21,24-octaoxaheptacosyl)-1-methyl-5-oxo-2-(pyridin-3-yl)pyrrolidine-3-carboxamide], the EC50 was 3.98 nM.

For the compound `CC(C)N(C)[C@@H]1CC[C@H](N2CC[C@H](Nc3ncnc4ccc(C(F)(F)F)cc34)C2=O)[C@H](NC(=O)[C@H]2C[C@H](NC(=O)CCOCCNC(=O)CCOCCNC(=O)[C@@H]3CC(=O)N(C)[C@H]3c3cccnc3)C2)C1` [Example 45], the EC50 was 3.98 nM.

As for `CN1C(=O)C[C@H](C(=O)NCCC(=O)NCCOCCOCCC(=O)N[C@H]2CC[C@@H](C(=O)N[C@@H]3C[C@H](NC(C)(C)C)CC[C@@H]3N3CC[C@H](Nc4ncnc5ccc(C(F)(F)F)cc45)C3=O)CC2)[C@H]1c1cccnc1` [Example 51], the EC50 is 2 nM.

In the case of `CC(C)N(C)[C@@H]1CC[C@H](N2CC[C@H](Nc3ncnc4ccc(C(F)(F)F)cc34)C2=O)[C@H](NC(=O)CCCOC[C@H]2CC[C@H](COCCNC(=O)[C@H]3CC(=O)N(C)[C@@H]3c3cccnc3)CC2)C1` [Example 58], the EC50 is 50.1 nM.

Regarding `CC(C)N(C)[C@@H]1CC[C@H](N2CC[C@H](Nc3ncnc4ccc(C(F)(F)F)cc34)C2=O)[C@H](NC(=O)CCCOCC23CCC(COCCNC(=O)[C@H]4CC(=O)N(C)[C@@H]4c4cccnc4)(CC2)CC3)C1` [Example 59], the EC50 is 251 nM.

As to `CC(C)N(C)[C@@H]1CC[C@H](N2CC[C@H](Nc3ncnc4ccc(C(F)(F)F)cc34)C2=O)[C@H](NC2CCC(C(=O)NCCOCCOCCNC(=O)[C@H]3CC(=O)N(C)[C@@H]3c3cccnc3)CC2)C1` (some centres unmarked) [Example 68], the EC50 is 10 nM.

`CC(C)N(C)[C@@H]1CC[C@H](N2CC[C@H](Nc3ncnc4ccc(C(F)(F)F)cc34)C2=O)[C@H](NC(=O)COCCNC(=O)CNC(=O)COCCOCCNC(=O)[C@H]2CC(=O)N(C)[C@@H]2c2cccnc2)C1` [Example 78]: the EC50 was 5.52 nM.

Consider `CC(C)N(C)[C@@H]1CC[C@H](N2CC[C@H](Nc3ncnc4ccc(C(F)(F)F)cc34)C2=O)[C@H](NC(=O)[C@H]2CC[C@@H](NC(=O)CNC(=O)COCCOCCNC(=O)[C@H]3CC(=O)N(C)[C@@H]3c3cccnc3)CC2)C1` [Example 81], for which the EC50 was 0.522 nM.

In the case of `CC(C)N(C)[C@@H]1CC[C@H](N2CC[C@H](Nc3ncnc4ccc(C(F)(F)F)cc34)C2=O)[C@H](NC(=O)[C@H]2CC[C@@H](NC(=O)COCCOCCNC(=O)CCNC(=O)[C@H]3CC(=O)N(C)[C@@H]3c3cccnc3)CC2)C1` [Example 82], the EC50 was 0.479 nM.

Turning to `CC(C)N(C)[C@@H]1CC[C@H](N2CC[C@H](Nc3ncnc4ccc(C(F)(F)F)cc34)C2=O)[C@H](NC(=O)COCC(=O)N2CCN(C(=O)N3CCN(C(=O)COCCNC(=O)[C@H]4CC(=O)N(C)[C@@H]4c4cccnc4)CC3)CC2)C1` [Example 84], the EC50 is 0.213 nM.

Turning to `CC(C)N(C)[C@@H]1CC[C@H](N2CC[C@H](Nc3ncnc4ccc(C(F)(F)F)cc34)C2=O)[C@H](NC(=O)CCc2ccc(C3CCN(C(=O)CCCCCNC(=O)[C@H]4CC(=O)N(C)[C@@H]4c4cccnc4)CC3)cc2)C1` [Example 86, (2S,3S)-N-(6-(4-(4-(3-(((1R,2S,5R)-5-(Isopropyl(methyl)amino)-2-((S)-2-oxo-3-((6-(trifluoromethyl)quinazolin-4-yl)amino)pyrrolidin-1-yl)cyclohexyl)amino)-3-oxopropyl)phenyl)piperidin-1-yl)-6-oxohexyl)-1-methyl-5-oxo-2-(pyridin-3-yl)pyrrolidine-3-carboxamide], the EC50 was 7.94 nM.

On to `CC(C)N(C)[C@@H]1CC[C@H](N2CC[C@H](Nc3ncnc4ccc(C(F)(F)F)cc34)C2=O)[C@H](NC(=O)C2CCN(C3CCN(C(=O)CCCCCNC(=O)[C@H]4CC(=O)N(C)[C@@H]4c4cccnc4)CC3)CC2)C1` [Example 87], for which the EC50 was 3.98 nM.

Consider `CC(C)N(C)[C@@H]1CC[C@H](N2CC[C@H](Nc3ncnc4ccc(C(F)(F)F)cc34)C2=O)[C@H](NC(=O)c2cc(OCCOCCOCCOCCOCCNC(=O)[C@H]3CC(=O)N(C)[C@@H]3c3cccnc3)ccn2)C1` [Example 88, N-((1R,2S,5R)-5-(Isopropyl(methyl)amino)-2-((S)-2-oxo-3-((6-(trifluoromethyl)quinazolin-4-yl)amino)pyrrolidin-1-yl)cyclohexyl)-4-((1-((2S,3S)-1-methyl-5-oxo-2-(pyridin-3-yl)pyrrolidin-3-yl)-1-oxo-5,8,11,14-tetraoxa-2-azahexadecan-16-yl)oxy)picolinamide], for which the EC50 was 2.51 nM.

As to `CC(C)N(C)[C@@H]1CC[C@H](N2CC[C@H](Nc3ncnc4ccc(C(F)(F)F)cc34)C2=O)[C@H](NC(=O)c2cc(OCCOCCOCCOCCNC(=O)[C@H]3CC(=O)N(C)[C@@H]3c3cccnc3)ccn2)C1` [Example 89], the EC50 is 6.31 nM.

On to `CC(C)N(C)[C@@H]1CC[C@H](N2CC[C@H](Nc3ncnc4ccc(C(F)(F)F)cc34)C2=O)[C@H](NC(=O)C2CCN(C3CCN(CCOCCOCCNC(=O)[C@H]4CC(=O)N(C)[C@@H]4c4cccnc4)CC3)CC2)C1` [Example 90, N-((1R,2S,5R)-5-(Isopropyl(methyl)amino)-2-((S)-2-oxo-3-((6-(trifluoromethyl)quinazolin-4-yl)amino)pyrrolidin-1-yl)cyclohexyl)-1′-(2-(2-(2-((2S,3S)-1-methyl-5-oxo-2-(pyridin-3-yl)pyrrolidine-3-carboxamido)ethoxy)ethoxy)ethyl)-[1,4′-bipiperidine]-4-carboxamide], for which the EC50 is 2 nM.

On to `CC(C)N(C)[C@@H]1CC[C@H](N2CC[C@H](Nc3ncnc4ccc(C(F)(F)F)cc34)C2=O)[C@H](NC(=O)c2ccc(OC3CCN(CCOCCOCCNC(=O)[C@H]4CC(=O)N(C)[C@@H]4c4cccnc4)CC3)cc2)C1` [Example 91], for which the EC50 is 2 nM.

In the case of `CC(C)N(C)[C@@H]1CC[C@H](N2CC[C@H](Nc3ncnc4ccc(C(F)(F)F)cc34)C2=O)[C@H](NC(=O)c2cnn(C3CCN(CCOCCOCCNC(=O)[C@H]4CC(=O)N(C)[C@@H]4c4cccnc4)CC3)c2)C1` [Example 92, N-((1R,2S,5R)-5-(Isopropyl(methyl)amino)-2-((S)-2-oxo-3-((6-(trifluoromethyl)quinazolin-4-yl)amino)pyrrolidin-1-yl)cyclohexyl)-1-(1-(2-(2-(2-((2S,3S)-1-methyl-5-oxo-2-(pyridin-3-yl)pyrrolidine-3-carboxamido)ethoxy)ethoxy)ethyl)piperidin-4-yl)-1H-pyrazole-4-carboxamide], the EC50 is 6.31 nM.

Regarding `CC(C)N(C)[C@@H]1CC[C@H](N2CC[C@H](Nc3ncnc4ccc(C(F)(F)F)cc34)C2=O)[C@H](NC(=O)C2CCC3(CC2)CCN(CCOCCOCCNC(=O)[C@H]2CC(=O)N(C)[C@@H]2c2cccnc2)CC3)C1` [Example 93], the EC50 is 3.98 nM.

With `CC(C)N(C)[C@@H]1CC[C@H](N2CC[C@H](Nc3ncnc4ccc(C(F)(F)F)cc34)C2=O)[C@H](NC(=O)[C@H]2CC[C@@H](NC(=O)C3CCC4(CC3)CCN(C(=O)[C@H]3CC(=O)N(C)[C@@H]3c3cccnc3)CC4)CC2)C1` [Example 95, N-((1 S,4R)-4-(((1R,2S,5R)-5-(Isopropyl(methyl)amino)-2-((S)-2-oxo-3-((6-(trifluoromethyl)quinazolin-4-yl)amino)pyrrolidin-1-yl)cyclohexyl)carbamoyl)cyclohexyl)-3-((2S,3S)-1-methyl-5-oxo-2-(pyridin-3-yl)pyrrolidine-3-carbonyl)-3-azaspiro[5.5]undecane-9-carboxamide], the EC50 was 6.31 nM.
